{"source": "patent US20060141029A1", "about": "“Methods and compositions for delivery of catecholic butanes for treatment of diseases” (priority 2003, published 2006)", "key": {"Solubility": {"assay": "Solubility", "type": "physicochemical"}, "[1]": {"test_system": "HPV-16 transformed immortal mouse epithelial cells (C3)", "settings": "cited from earlier work; for tumor growth: intratumor injection, separately or together, C3 tumors in mice"}, "head and neck cancer": {"test_system": "head and neck cancer", "assay": "ex-US clinical study, daily M4N with or without G4N followed by surgical resection", "type": "in vivo, humans"}, "[2]": {"settings": "dog, in vivo, iv", "experimental": "In this example the Maximal Tolerable Dose (MTD) of Dimethyl Sulfoxide (DMSO)] to male and female Beagle Dogs was determined.\nThus the M4N-DMSO group animals were administered with M4N-DMSO with eight intravenous injections via the non-VAP jugular vein every 30 minutes over a 4-hour period. This frequency of delivery mimicked the delivery of the test article using the infusion pump.\nThe dogs in the DMSO group were observed throughout the jugular vein injection period and for at least one hour following the last (eighth) injection."}, "[3]": {"assay": "Toxicokinetic (TK) analysis of M4N serum concentration in dogs", "type": "in vivo, Beagle Dogs", "settings": "DMSO vehicle, doses up to 100 mg/kg", "description": "Blood samples from the DMSO group animals were collected via the cephalic vein on SD 1, SD 3, SD 6, and SD 8 at the following timepoints: predose, 0.25, 0.5, 1, 2, 4, 8, and 16 hours following the final injection dose of M4N-DMSO. Blood samples collected from the animals were processed for plasma and serum for TK analysis.\nThe plasma and serum samples were sent to MedTox Laboratories, the Sponsor's designated laboratory for TK analysis. TK analysis of M4N plasma and serum concentration-time data was performed using a validated method (M200406) by MedTox Laboratories and analyzed by noncompartmental methods to obtain estimates of toxicokinetic parameters (where data allow), but not necessarily limited to, Cmax, Tmax and AUC."}, "[4]": {"test_system": "refractory head and neck carcinomas", "experimental": "All patients were diagnosed with refractory head and neck carcinomas.\nNine (9) subjects were dosed with an intratumoral dose of M4N given weekly for three weeks, at doses of 5 mg/cm^3 tumor volume (2 subjects), 10 mg/cm^3 (2 subjects) 15 mg/cm^3 (3 subjects) and 20 mg/cm^3 (2 subjects). Doses up to 495 mg weekly for three weeks were administered."}, "[5]": {"settings": "DMSO; cited from earlier work"}, "β-amyloid fibrils": {"test_system": "β-amyloid fibrils", "settings": "in vitro; cited from earlier work"}, "fAβ(1-40)": {"molecular_target": "T1, fAβ(1-40) (Homo sapiens, UniProt P05067)", "T1 construct": "broke down fAβ(1-40)", "T1 sequence (P05067 672-711 limits assumed)": "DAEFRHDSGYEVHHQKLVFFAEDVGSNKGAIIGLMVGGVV", "settings": "within a few hours at pH 7.5 at 37° C.; cited from earlier work"}, "fAβ(1-42)": {"molecular_target": "T2, fAβ(1-42) (Homo sapiens, UniProt P05067)", "T2 construct": "fAβ(1-42) within a few hours at pH 7.5", "T2 sequence (P05067 672-713 limits assumed)": "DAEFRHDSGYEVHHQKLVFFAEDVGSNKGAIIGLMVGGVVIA", "settings": "within a few hours at pH 7.5 at 37° C.; cited from earlier work"}, "[6]": {"settings": "rodents; cited from earlier work"}, "[7]": {"settings": "in vivo; cited from earlier work"}, "[8]": {"test_system": "mammary carcinoma MX-1 xenograft", "settings": "intratumoral single dose or topical application, athymic mice; cited from earlier work"}}, "data": [{"molecule": "C[C@H](Cc1ccc(OC(=O)CN(C)C)c(OC(=O)CN(C)C)c1)[C@@H](C)Cc1ccc(OC(=O)CN(C)C)c(OC(=O)CN(C)C)c1", "note": "[G4N, meso-1,4-bis[3,4-(dimethylaminoacetoxy)phenyl]-(2R,3S)-dimethylbutane]", "values": [{"measurement": "water solubility", "setting": "Solubility", "value": "water-soluble"}, {"measurement": "tumor growth", "setting": "[1]", "value": "some evidence of suppression of tumor growth"}]}, {"molecule": "COc1ccc(C[C@@H](C)[C@@H](C)Cc2ccc(OC)c(OC)c2)cc1OC", "note": "[M4N, meso-1,4-bis(3,4-dimethoxyphenyl)-2,3-dimethylbutane]", "values": [{"measurement": "dosage delivered without drug-related toxicity", "setting": "head and neck cancer; for up to five days, with or without G4N 20 mg per day", "value": 20, "unit": "mg per day"}, {"measurement": "patients remaining disease free", "setting": "head and neck cancer; long-term follow ups of the ex-US study", "value": 64, "unit": "%"}, {"measurement": "efficacy in terms of induction of necrosis", "setting": "head and neck cancer; patients that completed the treatment, daily dosing then resection", "value": "over 80%"}, {"measurement": "dose safely administered", "setting": "[2]", "value": "up to 100 mg/kg"}, {"measurement": "blood levels of M4N achieved", "setting": "[3]", "value": "up to 14,000 ng/ml"}, {"measurement": "damage to healthy tissue surrounding the tumor", "setting": "[4]; in vivo", "value": "No damage"}, {"measurement": "dose delivered without drug-related toxicity", "setting": "[4]; in vivo", "value": "up to 495 mg"}, {"measurement": "dosing related adverse events", "setting": "[4]; in vivo", "value": "mild or moderate pain on injection"}, {"measurement": "hematology parameters", "setting": "[4]; in vivo", "value": "No changes attributable to drug"}, {"measurement": "liver function tests (LFTs)", "setting": "[4]; in vivo", "value": "Sporadic, and non-reproducible mild elevations"}, {"measurement": "number of Serious Adverse Events (SAE)", "setting": "[4]; in vivo", "value": 6}, {"measurement": "relation of SAEs to study medication", "setting": "[4]; in vivo", "value": "unlikely or not related to study medication"}, {"measurement": "tolerability of dosing", "setting": "[4]; in vivo", "value": "generally well tolerated"}, {"measurement": "patients with radiologically confirmed tumor volume reduction", "setting": "[4]; patients completing three doses", "value": "three of the six"}, {"measurement": "efficacy in terms of induction of necrosis", "setting": "[4]; patients that completed the treatment, weekly escalating doses", "value": "over 80%"}, {"measurement": "subjects with drug related tumor necrosis after injection", "setting": "[4]; subjects receiving three doses", "value": "5 of 6"}, {"measurement": "penetration of tumor tissues", "setting": "[1]; composition of M4N in DMSO injected into the tumor", "value": "penetrate most but not all of the tumor tissues"}, {"measurement": "tumor growth", "setting": "[1]", "value": "some evidence of suppression of tumor growth"}, {"measurement": "solubility in dimethyl sulfoxide", "setting": "[5]", "value": "soluble"}]}, {"molecule": "CC(Cc1ccc(O)c(O)c1)C(C)Cc1ccc(O)c(O)c1", "note": "(centres unmarked) [NDGA, nordihydroguaiaretic acid]", "values": [{"measurement": "β-amyloid fibrils (fAβ) formation", "setting": "β-amyloid fibrils", "value": "inhibited"}, {"measurement": "breakdown of fAβ(1-40)", "setting": "fAβ(1-40)", "value": "dose-dependently broke down"}, {"measurement": "breakdown of fAβ(1-42)", "setting": "fAβ(1-42)", "value": "dose-dependently broke down"}, {"measurement": "serum glucose", "setting": "[6]", "value": "reducing"}, {"measurement": "serum non-esterified fatty acids", "setting": "[6]", "value": "reducing"}, {"measurement": "serum triglyceride", "setting": "[6]", "value": "reducing"}, {"measurement": "hypertension", "setting": "[7]", "value": "reducing hypertension"}, {"measurement": "tumor growth", "setting": "[8]", "value": "Some evidence of inhibition of tumor growth"}]}]}
